# Laboratory results published in ChEMBL document CHEMBL1649170, “Functional characterization of the sigmaB-dependent yabJ-spoVG operon in Staphylococcus aureus: role in methicillin and glycopeptide resistance” (2009).
# Columns and labels:
# Format in all cases: functional
# [1] = test system: Staphylococcus aureus; assay: Antimicrobial activity against erythromycin-, tetracycline resistant and yabJ-spoVG operon deficient Staphylococcus aureus COL by broth microdilution method
# [2] = test system: Staphylococcus aureus; assay: Antimicrobial activity against methicillin-resistant and tetracycline-sensitive Staphylococcus aureus COL mutant by broth microdilution method
# [3] = test system: Staphylococcus aureus; assay: Antimicrobial activity against erythromycin-resistant and rsbUVW-sigB operon deficient Staphylococcus aureus COL by broth microdilution method
# [4] = test system: Staphylococcus aureus; assay: Antimicrobial activity against erythromycin-resistant, tetracycline-sensitive and yabJ-spoVG operon deficient Staphylococcus aureus COL mutant by broth microdilution method
# [5] = test system: Staphylococcus aureus; assay: Antimicrobial activity against erythromycin-resistant, tetracycline-sensitive and rsbUVW-sigB operon deficient Staphylococcus aureus COL mutant by broth microdilution method
# [6] = test system: Staphylococcus aureus; assay: Antimicrobial activity against methicillin- and tetracycline resistant Staphylococcus aureus COL by broth microdilution method
smiles,measurement,setting,value
Cc1onc(-c2ccccc2)c1C(=O)N[C@@H]1C(=O)N2[C@@H]1SC(C)(C)[C@@H]2C(=O)O [OXACILLIN],MIC,[1],128 µg/mL
same,MIC,[2],> 256 µg/mL
same,MIC,[3],256 µg/mL
same,MIC,[4],> 256 µg/mL
same,MIC,[5],> 256 µg/mL
same,MIC,[6],> 256 µg/mL
